{"source": "patent US20260078346A1", "about": "“Cell Tissue Production Method, Application Method and Application Device” (NTN Corporation, priority 2022, published 2026)", "key": {"[1]": {"system": "2D tissue (planarly cultured iPS cardiomyocytes and normal human cardiac fibroblasts)", "assay": "Ca2+ transient waveform change on addition of isoproterenol, 2D tissue", "assay_type": "cell-based", "settings": "increasing isoproterenol concentration (nM)", "description": "(§1) After a myocardial tissue after being cultured for seven days was dyed, Ca^2+ transient measurement was performed from the viewpoint of checking a function of myocardial contraction. The measurement was performed for a myocardial tissue after culture (hereinafter described as “application tissue”) illustrated in FIG. 29 in this example and a planarly cultured tissue (hereinafter described as “2D tissue”) serving as a comparative example. In the myocardial tissue in the comparative example, iPS cardiomyocytes (iCell Cardiomyocyte 2) and normal human cardiac fibroblast were set to 4:1 in a number ratio. In the myocardial tissue in the comparative example, 50000 cells per one well were seeded and planarly cultured in the same culture medium as the culture medium of the application tissue obtained by the same application device as the application device in the second embodiment. A result of the Ca^2+ transient measurement is illustrated in the following Table 1.\n(§2) Subsequently, a change in a Ca^2+ transient waveform at the time when isoproterenol that is a β adrenergic receptor agonist was added was evaluated. In general, the isoproterenol raises the heart rate and the contraction force of a cardiomyocyte. The contraction force of the cardiomyocyte has a correlation with the fluorescence intensity (AMP) of the Ca^2+ transient measurement. […]"}, "[2]": {"system": "application tissue (myocardial tissue of iPS cardiomyocytes and normal human cardiac fibroblasts)", "assay": "Ca2+ transient waveform change on addition of isoproterenol, application tissue", "assay_type": "cell-based", "settings": "increasing isoproterenol concentration (nM)", "description": "as §1, §2"}}}
{"smiles": "CC(C)NCC(O)c1ccc(O)c(O)c1", "note": "(stereo not shown) [isoproterenol]", "values": [{"measurement": "change in BPM when isoproterenol is added", "setting": "[1]; FIG. 31", "result": "rose according to an increase in the isoproterenol concentration"}, {"measurement": "change in AMP (fluorescence intensity) when isoproterenol is added", "setting": "[1]; FIG. 32", "result": "did not rise much"}, {"measurement": "change in BPM when isoproterenol is added", "setting": "[2]; FIG. 31", "result": "rose according to an increase in the isoproterenol concentration"}, {"measurement": "change in AMP (fluorescence intensity) when isoproterenol is added", "setting": "[2]; FIG. 32", "result": "rose depending on the concentration of the isoproterenol"}]}
